Data from PMC9404711 (Antibiotics, 2022).
Read-outs that look alike come from different tables or passages of the source. Non-standard residues stand in square brackets, D forms with d. Residues, ends and D or L forms follow the SMILES beside them. *: point of attachment. Myristoyl = CCCCCCCCCCCCCC(=O)*; Decanoyl = CCCCCCCCCC(=O)*; Octanoyl = CCCCCCCC(=O)*; Hexanoyl = CCCCCC(=O)*

Key:
[1] = Hydrophobicity by analytical RP-HPLC (%B at elution); assay type: physicochemical; settings: chromatographic, analytical reversed-phase HPLC, Waters Symmetry C18 5 μm 4.6 × 250 mm; A: H2O + 0.1% TFA, B: 90:10 ACN-H2O + 0.1% TFA
Method: Peptide purity was determined as described previously by analytical RP-HPLC using a Waters 717 plus Autosampler, In-line Degasser AF, 600 Controller, and 2996 Photodiode Array Detector; the column used was a Waters Symmetry C18 column (5 μm, 4.6 mm × 250 mm, Milford, MA, USA). An aqueous acetonitrile (ACN) gradient with 0.1% TFA added (mixing eluent A: H2O + 0.1% TFA and eluent B: 90:10 ACN-H2O + 0.1% TFA) was employed using milli-Q water. Preparative RP-HPLC was performed by using a Waters XSelect Peptide CSH C18 OBDTM column (5 μm, 19 mm × 250 mm, Milford, MA, USA) with the same eluents as for analytical HPLC.
*Hydrophobicity as indicated by the percentage of mobile phase B (%B) at the peak elution time on analytical

human erythrocytes = settings: 150 μM peptide; 0.5% (v/v) red blood cell suspension in PBS, 1 h at 37 °C, absorbance 414 nm; melittin positive control, PBS negative control; three wells
[2] = test system: A. baumannii (ATCC 19606); assay type: cell-based, Acinetobacter baumannii; settings: A. baumannii ATCC 19606, MHB-II, 37 °C, 18–24 h, triplicate
Method: (§1) The following bacteria were grown in cation-adjusted Muller-Hinton broth at 37 °C with shaking: A. baumannii (ATCC 19606), E. coli (ATCC 25922), K. pneumoniae (ATCC 13883), P. aeruginosa (ATCC 27853), and S. aureus (ATCC 29213).
(§2) The MIC experiments were performed in triplicate, as described in Jensen et al.. Briefly, all peptide stock solutions were prepared by dissolving each peptide in Milli-Q water to obtain a concentration of 10 mg/mL. A bacterial concentration of 10^6 CFU/mL was obtained through the dilution of an overnight culture (MHB-II medium). When the overnight culture was prepared, the OD was measured using a spectrophotometer and when an OD value between 0.2 and 0.4 was obtained, the culture was diluted to OD = 0.002. The MIC determination was carried out in 96-well polypropylene microtitre plates. […] A final bacterial inoculum of 5 × 10^5 CFU/mL per well was obtained by adding 50 μL bacterial suspension to the microtiter plates. The plates were incubated at 37 °C for 18–24 h. To verify the CFU, 10 μL of bacteria suspension was transferred to 990 μL 0.9 % saline solution, from which a 10-fold dilution was carried out. Then, 100 μL of the dilution was plated on an LB plate and left for bacterial growth overnight at 37 °C. Colistin and vancomycin were used as the positive controls.

[3] = test system: P. aeruginosa (ATCC 27853); assay type: cell-based, Pseudomonas aeruginosa; settings: P. aeruginosa ATCC 27853, MHB-II, 37 °C, 18–24 h, triplicate
Method: as §1, §2

[4] = test system: K. pneumoniae (ATCC 13883); assay type: cell-based, Klebsiella pneumoniae; settings: K. pneumoniae ATCC 13883, MHB-II, 37 °C, 18–24 h, triplicate
Method: as §1, §2

E. coli (ATCC 25922) = assay type: cell-based, Escherichia coli; settings: E. coli ATCC 25922, MHB-II, 37 °C, 18–24 h, triplicate
Method: as §1, §2

S. aureus (ATCC 29213) = experiment: MIC determination, broth microdilution; assay type: cell-based, Staphylococcus aureus; settings: S. aureus ATCC 29213, MHB-II, 37 °C, 18–24 h, triplicate
Method: as §1, §2

SMILES | %B (hydrophobicity: percentage of mobile phase B at the peak elution time) [1] [%B] | % hemolysis of human erythrocytes (human erythrocytes) [%] | MIC AB ([2]; inoculum 5 × 10^5 CFU/mL) [µg/mL] | MIC AB ([2]; value in brackets) [µM] | MIC PA ([3]; inoculum 5 × 10^5 CFU/mL) [µg/mL] | MIC PA ([3]; value in brackets) [µM] | MIC KP ([4]; inoculum 5 × 10^5 CFU/mL) [µg/mL] | MIC KP ([4]; value in brackets) [µM] | MIC EC (E. coli (ATCC 25922); inoculum 5 × 10^5 CFU/mL) [µg/mL] | MIC EC (E. coli (ATCC 25922); value in brackets) [µM] | MIC SA (S. aureus (ATCC 29213); value in brackets) [µM] | MIC SA (S. aureus (ATCC 29213); inoculum 5 × 10^5 CFU/mL) [µg/mL]
CCCCCCCC(=O)N[C@H](CCCCN)C(=O)N[C@H](CCCCN)C(=O)N[C@H](CC(C)C)C(=O)N[C@H](Cc1ccccc1)C(=O)N[C@H](CCCCN)C(=O)N[C@H](CCCCN)C(=O)N[C@@H](C(=O)N[C@H](CC(C)C)C(=O)N[C@H](CCCNC(=N)N)C(=O)N[C@H](Cc1ccc(O)cc1)C(=O)N[C@H](CC(C)C)C(N)=O)[C@H](C)CC [compound 3] (Octanoyl-[dK][dK][dL][dF][dK][dK][dI][dL][dR][dY][dL]-NH2) | 64.1 | 100 | 4 | 2.5 | 32 | 20.3 | 8 | 5.1 | 16 | 10.2 | 40.1 | –
CC[C@@H](C)[C@@H](NC(=O)[C@@H](CCCCN)NC(=O)[C@@H](CCCCN)NC(=O)[C@@H](Cc1ccccc1)NC(=O)[C@@H](CC(C)C)NC(=O)[C@@H](CCCCN)NC(=O)[C@H](N)CCCCN)C(=O)N[C@H](CC(C)C)C(=O)N1CCCC[C@H](C(N)=O)NC(=O)[C@@H](Cc2ccc(O)cc2)NC(=O)[C@@H](CCCNC(=N)N)NC(=O)C1 [compound 7] | 44.1 | 3 | > 64 | > 42.6 | > 64 | > 42.6 | > 64 | > 42.6 | > 64 | > 42.6 | > 42.6 | > 64
CCCCCCCCCCCCCC(=O)N[C@H](CCCCN)C(=O)N[C@H](CCCCN)C(=O)N[C@H](CC(C)C)C(=O)N[C@H](Cc1ccccc1)C(=O)N[C@H](CCCCN)C(=O)N[C@H](CCCCN)C(=O)N[C@@H](C(=O)N1CCCC[C@H](C(N)=O)NC(=O)[C@@H](Cc2ccc(O)cc2)NC(=O)[C@@H](CCCNC(=N)N)NC(=O)[C@@H](CC(C)C)NC(=O)C1)[C@H](C)CC [compound 15] | 78.5 | 83 | 4 | 2.3 | 8 | 4.6 | 16 | 9.3 | 4 | 2.3 | 2.3 | 4
CC[C@@H](C)[C@H]1NC(=O)CN(C(=O)[C@@H](CCCCN)NC(=O)[C@@H](CCCCN)NC(=O)[C@@H](Cc2ccccc2)NC(=O)[C@@H](CC(C)C)NC(=O)[C@@H](CCCCN)NC(=O)[C@H](N)CCCCN)CCCC[C@H](C(N)=O)NC(=O)[C@@H](Cc2ccc(O)cc2)NC(=O)[C@@H](CCCNC(=N)N)NC(=O)[C@@H](CC(C)C)NC1=O [compound 9] | 46.6 | 3 | > 64 | > 42.6 | > 64 | > 42.6 | > 64 | > 42.6 | > 64 | > 42.6 | > 42.6 | > 64
CCCCCCCCCCCCCC(=O)N[C@H](CCCCN)C(=O)N[C@H](CCCCN)C(=O)N[C@H](CC(C)C)C(=O)N[C@H](Cc1ccccc1)C(=O)N[C@H](CCCCN)C(=O)N[C@H](CCCCN)C(=O)N[C@@H](C(=O)N[C@H](CC(C)C)C(=O)N[C@H](CCCNC(=N)N)C(=O)N[C@H](Cc1ccc(O)cc1)C(=O)N[C@H](CC(C)C)C(N)=O)[C@H](C)CC [compound 6] (Myristoyl-[dK][dK][dL][dF][dK][dK][dI][dL][dR][dY][dL]-NH2) | 96.5 | 100 | > 64 | > 38.6 | > 64 | > 38.6 | > 64 | > 38.6 | > 64 | > 38.6 | – | > 64
CCCCCC(=O)N[C@H](CCCCN)C(=O)N[C@H](CCCCN)C(=O)N[C@H](CC(C)C)C(=O)N[C@H](Cc1ccccc1)C(=O)N[C@H](CCCCN)C(=O)N[C@H](CCCCN)C(=O)N[C@@H](C(=O)N[C@H](CC(C)C)C(=O)N[C@H](CCCNC(=N)N)C(=O)N[C@H](Cc1ccc(O)cc1)C(=O)N[C@H](CC(C)C)C(N)=O)[C@H](C)CC [compound 2] (Hexanoyl-[dK][dK][dL][dF][dK][dK][dI][dL][dR][dY][dL]-NH2) | 67.9 | 100 | 4 | 2.6 | 32 | 20.7 | 8 | 5.2 | 8 | 5.2 | 41.4 | 64
CCCCCCCCCC(=O)N[C@H](CCCCN)C(=O)N[C@H](CCCCN)C(=O)N[C@H](CC(C)C)C(=O)N[C@H](Cc1ccccc1)C(=O)N[C@H](CCCCN)C(=O)N[C@H](CCCCN)C(=O)N[C@@H](C(=O)N[C@H](CC(C)C)C(=O)N[C@H](CCCNC(=N)N)C(=O)N[C@H](Cc1ccc(O)cc1)C(=O)N[C@H](CC(C)C)C(N)=O)[C@H](C)CC [compound 4] (Decanoyl-[dK][dK][dL][dF][dK][dK][dI][dL][dR][dY][dL]-NH2) | 85.0 | 100 | 32 | 20.0 | 32 | 20.0 | 32 | 20.0 | 32 | 20.0 | 20.0 | 32
CCCCCCCCCC(=O)N[C@H](CCCCN)C(=O)N[C@H](CCCCN)C(=O)N[C@H](CC(C)C)C(=O)N[C@H](Cc1ccccc1)C(=O)N[C@H](CCCCN)C(=O)N[C@H](CCCCN)C(=O)N[C@@H](C(=O)N[C@H](CC(C)C)C(=O)N1CCCC[C@H](C(N)=O)NC(=O)[C@@H](Cc2ccc(O)cc2)NC(=O)[C@@H](CCCNC(=N)N)NC(=O)C1)[C@H](C)CC [compound 10] | 62.7 | 81 | 4 | 2.4 | 4 | 2.4 | 8 | 4.8 | 4 | 2.4 | 2.4 | 4
